Measurements: patent US20230031406A1, “COMPOUNDS AND COMPOSITIONS FOR TREATING CONDITIONS ASSOCIATED WITH NLRP ACTIVITY” (Novartis AG, priority 2018, published 2023)

Assays:
[1] = system: PMA-differentiated THP-1 cells; assay: hTHP-1 assay containing 10% fetal bovine serum (IL-1β production, Tables B5 and B6); assay type: cell-based, human; conditions: Table B5
How it was run: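 IL-1β release from PMA-differentiated THP-1 macrophage-like cells was triggered by 5 μM gramicidin for 2 h after 1 h compound exposure, then measured by HTRF.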

[2] = system: PMA-differentiated THP-1 cells; assay: IL-1β production in PMA-differentiated THP-1 cells stimulated with gramicidin (hTHP-1 assay containing 2% fetal bovine serum; Procedures 1 and 2); assay type: cell-based, human; conditions: Table B5
How it was run: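 Human monocytic THP-1 cells, matured overnight with PMA at 20 ng/ml, are seeded in low-serum (2% FBS) RPMI. Test compounds, at final concentrations from 100 down to 0.0017 μM, precede gramicidin (5 μM, 2 h) by one hour. Released IL-1β is then determined by HTRF.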

[3] = Homo sapiens, THP-1, read-out: hTHP-1 IC50 in 10% FBS, hTHP-1 assay containing 10% fetal bovine serum
[4] = Homo sapiens, THP-1, read-out: hTHP-1 IC50 in 2% FBS, hTHP-1 assay containing 2% fetal bovine serum

IC50 [1, 3] | IC50 [2, 4] | SMILES | also measured
 |  | CCn1cc(F)c(S(N)(=O)=NC(=O)Nc2c(C)c(C(F)(F)F)nc3c2CC(C)C3)n1 (single isomer, unassigned) [Compound 1101c, (S, S) or (S, R)-N′-((3,6-dimethyl-2-(trifluoromethyl)-6,7-dihydro-5H-cyclopenta[b]pyridin-4-yl)carbamoyl)-1-ethyl-4-fluoro-1H-pyrazole-3-sulfonimidamide] | IC50 ([1]; read-out: hTHP-1 IC50 in 10% FBS, hTHP-1 assay containing 10% fetal bovine serum, listed as 823): 5000 to 30000 nM; IC50 ([2]; read-out: hTHP-1 IC50 in 2% FBS, hTHP-1 assay containing 2% fetal bovine serum, listed as 823): 5000 to 30000 nM
40 to 200 nM | 40 to 200 nM | CC(C)n1cc(F)c(S(N)(=O)=NC(=O)Nc2c3c(nc(C4CC4)c2C2CC2)CCC3)n1 (centres unmarked) [Compound 1103, N′-((2,3-dicyclopropyl-6,7-dihydro-5H-cyclopenta[b]pyridin-4-yl)carbamoyl)-4-fluoro-1-isopropyl-1H-pyrazole-3-sulfonimidamide] | 
1000 to 5000 nM | 5000 to 30000 nM | CCn1cc(F)c([S@](N)(=O)=NC(=O)Nc2c(C)c(C(F)(F)F)nc3c2[C@H](C)CC3)n1 (single isomer, unassigned) [Compound 1100a, (R, R) or (R, S)-N′-((3,5-dimethyl-2-(trifluoromethyl)-6,7-dihydro-5H-cyclopenta[b]pyridin-4-yl)carbamoyl)-1-ethyl-4-fluoro-1H-pyrazole-3-sulfonimidamide] | 
 |  | CC(C)n1cc(F)c(S(N)(=O)=NC(=O)Nc2c3c(nc4c2CCC42CC2)CCC3)n1 (single isomer, unassigned) [Compound 1102a, (R) or (S)-4-Fluoro-1-isopropyl-N′-((1′,5′,6′,7′-tetrahydro-2′H-spiro [cyclopropane-1,3′-dicyclopenta[b,e]pyridin]-8′-yl)carbamoyl)-1H-pyrazole-3-sulfonimidamide] | IC50 ([1]; read-out: hTHP-1 IC50 in 10% FBS, hTHP-1 assay containing 10% fetal bovine serum, listed as 813): 8 to 40 nM; IC50 ([2]; read-out: hTHP-1 IC50 in 2% FBS, hTHP-1 assay containing 2% fetal bovine serum, listed as 813): 8 to 40 nM
